Laboratory results from patent US10266577B2, “GLP-1 derivatives, and uses thereof” (Novo Nordisk A/S, priority 2013, dated 2019).
pIC50: −log10 of the molar value. Square brackets hold non-standard residues; d marks the D form. Side chains are listed from the residue outwards. Peptide text beside a SMILES is read from it. * marks the point of attachment. Hexadecanoyl(16-SO3H) = O=C(CCCCCCCCCCCCCCCS(=O)(=O)O)*; Cya = N[C@@H](CS(=O)(=O)O)C(=O)O; Trx = NC[C@H]1CC[C@H](C(=O)O)CC1; AEEA = NCCOCCOCC(=O)O; Aib = CC(C)(N)C(=O)O

Biological target: T1, human GLP-1 receptor (Homo sapiens, UniProt P43220)
T1 construct: expressed in transfected cells; host or cells: BHK cells (parent line BHKTS13), clone FCW467-12A; membrane preparation
Assay: GLP-1 receptor binding: competitive binding assay (125I-GLP-1, SPA) on isolated membranes at low and high HSA
Details: high serum albumin (2.0% HSA final assay concentration); displacement of 125I-GLP-1
Method: The purpose of this example is to test the receptor binding of the GLP-1 derivatives in vitro. The receptor binding is a measure of affinity of a derivative for the human GLP-1 receptor.
In this type of assay a labelled ligand (in this case ^125I-GLP-1) is bound to the receptor. Each derivative is added in a series of concentrations to isolated membranes containing the human GLP-1 receptor and displacement of the labelled ligand is monitored. The receptor binding is reported as the concentration at which half of the labelled ligand is displaced from the receptor, the IC50 value.
The following chemicals were used in the assay: Human serum albumin (HSA) (Sigma A1653), DMEM w/o phenol red (Gibco 11880-028), Pen/strep (Invitrogen 15140-122), G418 (Invitrogen 10131-027), 1 M Hepes (Gibco 15630), EDTA (Invitrogen 15575-038), PBS (Invitrogen 14190-094), fetal calf serum (Invitrogen 16140-071), EGTA, MgCl2 (Merck 1.05832.1000), Tween 20 (Amresco 0850C335), SPA particles (wheat germ agglutinin (WGA) SPA beads, Perkin Elmer RPNQ0001), [^125I]-GLP-1]-(7-36)NH2 (produced in-house), OptiPlate™-96 (Packard 6005290).
Buffer 1 consisted of 20 mM Na-HEPES plus 10 mM EDTA and pH was adjusted to 7.4. Buffer 2 consisted of 20 mM Na-HEPES plus 0.1 mM EDTA and pH was adjusted to 7.4. Assay buffer consisted of 50 mM HEPES supplemented with 5 mM EGTA, 5 mM MgCl2, 0.005% Tween 20 and pH was adjusted to 7.4. An 8% albumin stock consisted of HSA dissolved at 8% (w/v) in assay buffer. An 0.02% albumin stock consisted of HSA dissolved at 0.02% (w/v) in assay buffer.
The cells express the human GLP-1 receptor.
The cells were grown at 5% CO2 in DMEM, 10% fetal calf serum, 1% Pen/Strep (Penicillin/Streptomycin) and 1.0 mg/ml of the selection marker G418.
To make a membrane preparation the cells were grown to approximately 80% confluence. The cells were washed twice in phosphate-buffered saline and harvested. The cells were pelleted using a brief centrifugation and the cell pellet was kept on ice. The cell pellet was homogenised with ULTRA-THURRAX™ dispersing instrument for 20-30 seconds in a suitable amount of buffer 1 (e.g., 10 ml). The homogenate was centrifuged for 15 minutes. The pellet was re-suspended (homogenised) in 10 ml buffer 2 and centrifuged. This step was repeated once more. The resulting pellet was re-suspended in buffer 2 and the protein concentration was determined. The membranes were aliquoted and stored at minus 80° C.
For the receptor binding assay in the presence of low HSA (0.005%) 50 μl of the assay buffer was added to each well of an assay plate. Assay continued with step 3.
For the receptor binding assay in the presence of high HSA (2%) 50 μl of the 8% albumin stock was added to each well of an assay plate. Assay continued with step 3.
Cell membrane aliquots were thawed and diluted to their working concentration. Fifty μl were added to each well in the assay plate.
WGA SPA beads were suspended in assay buffer at 20 mg/ml. The suspension was diluted to 10 mg/ml in assay buffer just prior to addition to the assay plate. Fifty μl were added to each well in the assay plate.
The incubation was started by adding 25 μl of 480 pM solution of [^125I]-GLP-1]-(7-36)NH2 to each well of the assay plate. A 25 μl aliquot was reserved for measuring total counts/well.
The assay plate was incubated for 2 h at 30° C.
The assay plate was centrifuged for 10 min.
The assay plate was read in a Packard TopCount NXT instrument.
The data from the TopCount instrument were transferred to GraphPad Prism software. The software averaged the values for the replicates and performed a non-linear regression. IC50 values were calculated by the software and reported in nM.

T1 sequence (P43220 24-463): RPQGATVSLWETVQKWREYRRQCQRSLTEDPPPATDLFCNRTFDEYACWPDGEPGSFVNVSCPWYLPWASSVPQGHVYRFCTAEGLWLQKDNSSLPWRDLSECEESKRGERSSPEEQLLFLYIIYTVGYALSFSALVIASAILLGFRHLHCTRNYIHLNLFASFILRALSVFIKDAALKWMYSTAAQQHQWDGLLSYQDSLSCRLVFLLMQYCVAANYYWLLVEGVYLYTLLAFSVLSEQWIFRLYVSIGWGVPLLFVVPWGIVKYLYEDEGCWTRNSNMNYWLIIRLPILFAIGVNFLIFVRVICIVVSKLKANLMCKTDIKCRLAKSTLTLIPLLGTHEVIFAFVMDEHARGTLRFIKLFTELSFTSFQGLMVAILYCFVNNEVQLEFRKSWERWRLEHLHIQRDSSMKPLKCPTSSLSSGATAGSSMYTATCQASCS

| Compound | pIC50 |
| --- | --- |
| CC[C@H](C)[C@H](NC(=O)[C@H](Cc1ccccc1)NC(=O)[C@H](CCC(=O)O)NC(=O)[C@H](CCCNC(=N)N)NC(=O)[C@H](C)NC(=O)[C@H](C)NC(=O)[C@H](CCC(N)=O)NC(=O)[C@H](CCCCNC(=O)COCCOCCNC(=O)COCCOCCNC(=O)COCCOCCNC(=O)COCCOCCNC(=O)COCCOCCNC(=O)[C@@H](N)CCCCNC(=O)[C@@H](N)CCCCNC(=O)CCCCCNC(=O)CCCCCCCCCCCCCCCS(=O)(=O)O)NC(=O)[C@H](CCC(=O)O)NC(=O)[C@H](CC(C)C)NC(=O)[C@H](Cc1ccc(O)cc1)NC(=O)[C@H](CCCCNC(=O)COCCOCCNC(=O)COCCOCCNC(=O)COCCOCCNC(=O)COCCOCCNC(=O)COCCOCCNC(=O)[C@@H](N)CCCCNC(=O)[C@@H](N)CCCCNC(=O)CCCCCNC(=O)CCCCCCCCCCCCCCCS(=O)(=O)O)NC(=O)[C@H](CO)NC(=O)[C@@H](NC(=O)[C@H](CC(=O)O)NC(=O)[C@H](CO)NC(=O)[C@@H](NC(=O)[C@H](Cc1ccccc1)NC(=O)[C@@H](NC(=O)CNC(=O)[C@H](CCC(=O)O)NC(=O)C(C)(C)NC(=O)[C@@H](N)Cc1c[nH]cn1)[C@@H](C)O)[C@@H](C)O)C(C)C)C(=O)N[C@@H](CCCCNC(=O)COCCOCCNC(=O)COCCOCCNC(=O)COCCOCCNC(=O)COCCOCCNC(=O)COCCOCCNC(=O)[C@@H](N)CCCCNC(=O)[C@@H](N)CCCCNC(=O)CCCCCNC(=O)CCCCCCCCCCCCCCCS(=O)(=O)O)C(=O)N[C@@H](Cc1c[nH]c2ccccc12)C(=O)N[C@@H](CC(C)C)C(=O)N[C@H](C(=O)N[C@@H](CCCNC(=N)N)C(=O)NCC(=O)N[C@@H](CCCNC(=N)N)C(=O)NCC(=O)O)C(C)C [Example 20] | 7.00 |

Tested on: not listed separately
Assay: in vivo
Details: male, Göttingen, minipig, iv
Method: The purpose of this study is to determine the protraction in vivo of the GLP-1 derivatives after i.v. administration to minipigs, i.e. the prolongation of their time in the body and thereby their time of action. This is done in a pharmacokinetic (PK) study, where the terminal half-life of the derivative in question is determined. By terminal half-life is meant the time it takes to halve a certain plasma concentration in the terminal elimination phase.
Male Göttingen minipigs were obtained from Ellegaard Göttingen Minipigs (Dalmose, Denmark) approximately 7-14 months of age and weighing approximately 16-35 kg were used in the studies. The minipigs were housed either individually (pigs with permanent catheters) or in a group and fed restrictedly once or twice daily with SDS minipig diet (Special Diets Services, Essex, UK).
After at least 2 weeks of acclimatisation two permanent central venous catheters were implanted in vena cava caudalis or cranialis in each animal. The animals were allowed 1 week recovery after the surgery, and were then used for repeated pharmacokinetic studies with a suitable wash-out period between successive GLP-1 derivative dosings.
Blood samples (for example 0.8 ml) were collected in EDTA buffer (8 mM) and then centrifuged at 4° C. and 1942G for 10 minutes.
Plasma was pipetted into Micronic tubes on dry ice, and kept at −20° C. until analysed for plasma concentration of the respective GLP-1 compound using LOCI. Individual plasma concentration-time profiles were analyzed by a non-compartmental pharmacokinetic method in Phoenix v. 6.2 (Pharsight Inc., Mountain View, Calif., USA), or other relevant software for PK analysis, and the resulting terminal half-lives (harmonic mean) determined.

| Compound | half-life |
| --- | --- |
| CC[C@H](C)[C@H](NC(=O)[C@H](Cc1ccccc1)NC(=O)[C@H](CCC(=O)O)NC(=O)[C@H](CCCNC(=N)N)NC(=O)[C@H](C)NC(=O)[C@H](C)NC(=O)[C@H](CCC(N)=O)NC(=O)[C@H](CCCCNC(=O)COCCOCCNC(=O)COCCOCCNC(=O)[C@H](CS(=O)(=O)O)NC(=O)[C@H]1CC[C@H](CNC(=O)CCCCCCCCCCCCCCCS(=O)(=O)O)CC1)NC(=O)[C@H](CCC(=O)O)NC(=O)[C@H](CC(C)C)NC(=O)[C@H](Cc1ccc(O)cc1)NC(=O)[C@H](CCCCNC(=O)COCCOCCNC(=O)COCCOCCNC(=O)[C@H](CS(=O)(=O)O)NC(=O)[C@H]1CC[C@H](CNC(=O)CCCCCCCCCCCCCCCS(=O)(=O)O)CC1)NC(=O)[C@H](CO)NC(=O)[C@@H](NC(=O)[C@H](CC(=O)O)NC(=O)[C@H](CO)NC(=O)[C@@H](NC(=O)[C@H](Cc1ccccc1)NC(=O)[C@@H](NC(=O)CNC(=O)[C@H](CCC(=O)O)NC(=O)C(C)(C)NC(=O)[C@@H](N)Cc1c[nH]cn1)[C@@H](C)O)[C@@H](C)O)C(C)C)C(=O)N[C@@H](CCCCNC(=O)COCCOCCNC(=O)COCCOCCNC(=O)[C@H](CS(=O)(=O)O)NC(=O)[C@H]1CC[C@H](CNC(=O)CCCCCCCCCCCCCCCS(=O)(=O)O)CC1)C(=O)N[C@@H](Cc1c[nH]c2ccccc12)C(=O)N[C@@H](CC(C)C)C(=O)N[C@H](C(=O)N[C@@H](CCCNC(=N)N)C(=O)NCC(=O)N[C@@H](CCCNC(=N)N)C(=O)NCC(=O)O)C(C)C [Example 4] (H-H[Aib]EGTFTSDVSK([AEEA-AEEA-Cya-Trx-Hexadecanoyl(16-SO3H)])YLEK([AEEA-AEEA-Cya-Trx-Hexadecanoyl(16-SO3H)])QAAREFIK([AEEA-AEEA-Cya-Trx-Hexadecanoyl(16-SO3H)])WLVRGRG-OH; N-terminus and C-terminus assumed) | 120 h |
| CC[C@H](C)[C@H](NC(=O)[C@H](Cc1ccccc1)NC(=O)[C@H](CCC(=O)O)NC(=O)[C@H](CCCCNC(=O)[C@@H](N)CCCCNC(=O)COCCOCCNC(=O)COCCOCCNC(=O)[C@H](CS(=O)(=O)O)NC(=O)CCCCCCCCCCCCCCCS(=O)(=O)O)NC(=O)[C@H](C)NC(=O)[C@H](C)NC(=O)[C@H](CCC(N)=O)NC(=O)[C@H](CCC(=O)O)NC(=O)[C@H](CCC(=O)O)NC(=O)[C@H](CC(C)C)NC(=O)[C@H](Cc1ccc(O)cc1)NC(=O)[C@H](CO)NC(=O)[C@H](CO)NC(=O)[C@@H](NC(=O)[C@H](CC(=O)O)NC(=O)[C@H](CO)NC(=O)[C@@H](NC(=O)[C@H](Cc1ccccc1)NC(=O)[C@@H](NC(=O)CNC(=O)[C@H](CCC(=O)O)NC(=O)C(C)(C)NC(=O)[C@@H](N)Cc1c[nH]cn1)[C@@H](C)O)[C@@H](C)O)C(C)C)C(=O)N[C@@H](CCCCNC(=O)[C@@H](N)CCCCNC(=O)COCCOCCNC(=O)COCCOCCNC(=O)[C@H](CS(=O)(=O)O)NC(=O)CCCCCCCCCCCCCCCS(=O)(=O)O)C(=O)N[C@@H](Cc1c[nH]c2ccccc12)C(=O)N[C@@H](CC(C)C)C(=O)N[C@H](C(=O)N[C@@H](CCCNC(=N)N)C(=O)NCC(=O)N[C@@H](CCCNC(=N)N)C(=O)N[C@@H](CCCCNC(=O)[C@@H](N)CCCCNC(=O)COCCOCCNC(=O)COCCOCCNC(=O)[C@H](CS(=O)(=O)O)NC(=O)CCCCCCCCCCCCCCCS(=O)(=O)O)C(=O)O)C(C)C [Example 12] | 111 h |
| CC[C@H](C)[C@H](NC(=O)[C@H](Cc1ccccc1)NC(=O)[C@H](CCC(=O)O)NC(=O)[C@H](CCCCNC(=O)[C@H](CO)NC(=O)[C@H](CO)NC(=O)[C@H](CO)NC(=O)[C@H](CO)NC(=O)[C@H](CO)NC(=O)[C@H](CO)NC(=O)CC[C@H](NC(=O)CCCCCCCCCCCCCCCCC(=O)O)C(=O)O)NC(=O)[C@H](C)NC(=O)[C@H](C)NC(=O)[C@H](CCC(N)=O)NC(=O)CNC(=O)[C@H](CCC(=O)O)NC(=O)[C@H](CC(C)C)NC(=O)[C@H](Cc1ccc(O)cc1)NC(=O)[C@H](CCCCNC(=O)[C@H](CO)NC(=O)[C@H](CO)NC(=O)[C@H](CO)NC(=O)[C@H](CO)NC(=O)[C@H](CO)NC(=O)[C@H](CO)NC(=O)CC[C@H](NC(=O)CCCCCCCCCCCCCCCCC(=O)O)C(=O)O)NC(=O)[C@H](CO)NC(=O)[C@@H](NC(=O)[C@H](CC(=O)O)NC(=O)[C@H](CO)NC(=O)[C@@H](NC(=O)[C@H](Cc1ccccc1)NC(=O)[C@@H](NC(=O)CNC(=O)[C@H](CCC(=O)O)NC(=O)C(C)(C)NC(=O)[C@@H](N)Cc1c[nH]cn1)[C@@H](C)O)[C@@H](C)O)C(C)C)C(=O)N[C@@H](C)C(=O)N[C@@H](Cc1c[nH]c2ccccc12)C(=O)N[C@@H](CC(C)C)C(=O)N[C@H](C(=O)N[C@@H](CCCNC(=N)N)C(=O)NCC(=O)N[C@@H](CCCNC(=N)N)C(=O)N[C@@H](CCCCNC(=O)[C@H](CO)NC(=O)[C@H](CO)NC(=O)[C@H](CO)NC(=O)[C@H](CO)NC(=O)[C@H](CO)NC(=O)[C@H](CO)NC(=O)CC[C@H](NC(=O)CCCCCCCCCCCCCCCCC(=O)O)C(=O)O)C(=O)O)C(C)C [Example 8] | 138 h |
| CC[C@H](C)[C@H](NC(=O)[C@H](Cc1ccccc1)NC(=O)[C@H](CCC(=O)O)NC(=O)[C@H](CCCNC(=N)N)NC(=O)[C@H](C)NC(=O)[C@H](C)NC(=O)[C@H](CCC(N)=O)NC(=O)[C@H](CCCCNC(=O)COCCOCCNC(=O)COCCOCCNC(=O)[C@H](CS(=O)(=O)O)NC(=O)CCCCCCCCCCCCCCCS(=O)(=O)O)NC(=O)[C@H](CCC(=O)O)NC(=O)[C@H](CC(C)C)NC(=O)[C@H](Cc1ccc(O)cc1)NC(=O)[C@H](CCCCNC(=O)COCCOCCNC(=O)COCCOCCNC(=O)[C@H](CS(=O)(=O)O)NC(=O)CCCCCCCCCCCCCCCS(=O)(=O)O)NC(=O)[C@H](CO)NC(=O)[C@@H](NC(=O)[C@H](CC(=O)O)NC(=O)[C@H](CO)NC(=O)[C@@H](NC(=O)[C@H](Cc1ccccc1)NC(=O)[C@@H](NC(=O)CNC(=O)[C@H](CCC(=O)O)NC(=O)C(C)(C)NC(=O)[C@@H](N)Cc1c[nH]cn1)[C@@H](C)O)[C@@H](C)O)C(C)C)C(=O)N[C@@H](CCCCNC(=O)COCCOCCNC(=O)COCCOCCNC(=O)[C@H](CS(=O)(=O)O)NC(=O)CCCCCCCCCCCCCCCS(=O)(=O)O)C(=O)N[C@@H](Cc1c[nH]c2ccccc12)C(=O)N[C@@H](CC(C)C)C(=O)N[C@H](C(=O)N[C@@H](CCCNC(=N)N)C(=O)NCC(=O)N[C@@H](CCCNC(=N)N)C(=O)NCC(=O)O)C(C)C [Example 2] (H-H[Aib]EGTFTSDVSK([AEEA-AEEA-Cya-Hexadecanoyl(16-SO3H)])YLEK([AEEA-AEEA-Cya-Hexadecanoyl(16-SO3H)])QAAREFIK([AEEA-AEEA-Cya-Hexadecanoyl(16-SO3H)])WLVRGRG-OH; N-terminus and C-terminus assumed) | 140 h |
| CC[C@H](C)[C@H](NC(=O)[C@H](Cc1ccccc1)NC(=O)[C@H](CCC(=O)O)NC(=O)[C@H](CCCCNC(=O)[C@@H](N)CCCCNC(=O)[C@H](CO)NC(=O)[C@H](CO)NC(=O)[C@H](CO)NC(=O)[C@H](CO)NC(=O)[C@H](CO)NC(=O)CC[C@H](NC(=O)CCCCCCCCCCCCCCCCC(=O)O)C(=O)O)NC(=O)[C@H](C)NC(=O)[C@H](C)NC(=O)[C@H](CCC(N)=O)NC(=O)CNC(=O)[C@H](CCC(=O)O)NC(=O)[C@H](CC(C)C)NC(=O)[C@H](Cc1ccc(O)cc1)NC(=O)[C@H](CCCCNC(=O)[C@@H](N)CCCCNC(=O)[C@H](CO)NC(=O)[C@H](CO)NC(=O)[C@H](CO)NC(=O)[C@H](CO)NC(=O)[C@H](CO)NC(=O)CC[C@H](NC(=O)CCCCCCCCCCCCCCCCC(=O)O)C(=O)O)NC(=O)[C@H](CO)NC(=O)[C@@H](NC(=O)[C@H](CC(=O)O)NC(=O)[C@H](CO)NC(=O)[C@@H](NC(=O)[C@H](Cc1ccccc1)NC(=O)[C@@H](NC(=O)CNC(=O)[C@H](CCC(=O)O)NC(=O)C(C)(C)NC(=O)[C@@H](N)Cc1c[nH]cn1)[C@@H](C)O)[C@@H](C)O)C(C)C)C(=O)N[C@@H](C)C(=O)N[C@@H](Cc1c[nH]c2ccccc12)C(=O)N[C@@H](CC(C)C)C(=O)N[C@H](C(=O)N[C@@H](CCCNC(=N)N)C(=O)NCC(=O)N[C@@H](CCCNC(=N)N)C(=O)N[C@@H](CCCCNC(=O)[C@@H](N)CCCCNC(=O)[C@H](CO)NC(=O)[C@H](CO)NC(=O)[C@H](CO)NC(=O)[C@H](CO)NC(=O)[C@H](CO)NC(=O)CC[C@H](NC(=O)CCCCCCCCCCCCCCCCC(=O)O)C(=O)O)C(=O)O)C(C)C [Example 3] | 120 h |
